From patent US20230148184A1, “COMPOUNDS AND METHODS FOR MODULATING SPLICING” (REMIX THERAPEUTICS INC., priority 2020, published 2023)

How the values were obtained:
Format in all cases: cell-based
HTT CJ mRNA = test: Gene panel canonical junction qPCR assay, HTT; conditions: decrease in CJ mRNA levels, RT-qPCR
Procedure: (§1) Compounds described herein were used to modulate RNA transcript abundance in cells. The expression of a target mRNA was measured by detecting the formation of an exon-exon junction in the canonical transcript (CJ). A compound mediated exon-inclusion event was detected by observing an increase in formation of a new junction with an alternative exon (AJ). Real-time qPCR assays were used to detect these splicing switches and interrogate the potency of various compounds towards different target genes. A high-throughput real time quantitative PCR (RT-qPCR) assay was developed to measure these two isoforms of the mRNA (CJ and AJ) for an exemplary gene, HTT, together with a control housekeeping gene, GAPDH or GUSB or PPIA, used for normalization. Briefly, the A673 or K562 cell line was treated with various compounds described herein (e.g., compounds of Formula (I)). After treatment, the levels of the HTT mRNA targets were determined from each sample of cell lysate by cDNA synthesis followed by qPCR.
(§2) The A673 cell line was cultured in DMEM with 10% FBS. Cells were diluted with full growth media and plated in a 96-well plate (15,000 cells in 100 ul media per well). The plate was incubated at 37° C. with 5% CO2 for 24 hours to allow cells to adhere. An 11-point 3-fold serial dilution of the compounds was made in DMSO then diluted in media in an intermediate plate. Compounds were transferred from the intermediate plate to the cell plate with the top dose at a final concentration of 10 uM in the well. Final DMSO concentration was kept at or below 0.25%. The cell plate was returned to the incubator at 37° C. with 5% CO2 for an additional 24 hours.
(§3) The K562 cell line was cultured in IMDM with 10% FBS. For K562, cells were diluted with full growth media and plated in either a 96-well plate (50,000 cells in 50 uL media per well) or a 384-well plate (8,000-40,000 cells in 45 uL media per well). An 11-point 3-fold serial dilution of the compounds were made in DMSO then diluted in media in an intermediate plate. Compound was transferred from the intermediate plate to the cell plate with the top dose at a final concentration of 10 uM in the well. Final DMSO concentration was kept at or below 0.25%. Final volume was 100 uL for 96-well plate and 50 uL for 384-well plate. The cell plate was then placed in an incubator at 37° C. with 5% CO2 for 24 hours.
(§4) The cells were then gently washed with 50 uL-100 uL cold PBS before proceeding to addition of lysis buffer. 30 uL-50 uL of room temperature lysis buffer with DNAse I (and optionally RNAsin) was added to each well. Cells were shaken/mixed thoroughly at room temperature for 5-10 minutes for lysis to take place and then 3 uL-5 uL of room temperature stop solution was added and wells were shaken/mixed again. After 2-5 minutes, the cell lysate plate was transferred to ice for RT-qPCR reaction setup. The lysates could also be frozen at −80° C. for later use.
(§5) In some cases, a direct lysis buffer was used. An appropriate volume of 3× lysis buffer (10 mM Tris, 150 mM NaCl, 1.5%-2.5% Igepal and 0.1-1 U/uL RNAsin, pH 7.4) was directly added to either K562 or A673 cells in media and mixed by pipetting 3 times. The plates were then incubated at room temperature with shaking/rocking for 20-50 minutes to allow for lysis to take place. After this time, the cell lysate plate was transferred to ice to set up for the RT-qPCR reactions. The lysates could also be frozen at −80° C. for later use.
(§6) To set up 10 uL RT-qPCR reactions, cell lysates were transferred to 384-well qPCR plates containing the master mix according to the table below. The plates were sealed, gently vortexed, and spun down before the run. The volumes were adjusted accordingly in some instances where the reaction was carried in 20 uL. The table below summarizes the components of the RT-qPCR reactions:
(§7) The RT-qPCR reaction was performed using a QuantStudio (ThermoFisher) under the following fast cycling conditions. […]

Target C CJ mRNA = test: Gene panel canonical junction qPCR assay, Target C; conditions: decrease in CJ mRNA levels, RT-qPCR
Procedure: as §1, §2, §3, §4, §5, §6, §7

HTT mRNA = test: RT-qPCR splicing assay for HTT mRNA isoforms (canonical junction CJ and alternative junction AJ); conditions: A673 or K562 cell line, 24 hours compound treatment; for IC50: decrease in CJ mRNA; for AC50: increase in AJ mRNA
Procedure: as §1
Cells-to-CT 1-step kit: ThermoFisher A25602, Cells-to-CT lysis reagent: ThermoFisher 4391851C, TaqMan™ Fast Virus 1-Step Master Mix: ThermoFisher 4444436 GAPDH: VIC-PL, ThermoFisher 4326317E (Assay: Hs99999905_m1)—used for K562/suspension cell lines GUSB: VIC-PL, ThermoFisher 4326320E (Assay: Hs99999908_m1)—used for K562/suspension cell lines PPIA: VIC-PL, ThermoFisher 4326316E (Assay: Hs99999904_m1)—used for A673/adherent cell lines
as §2, §3, §4
as §5, with “use. […]” for “use.”

SMN2 CJ mRNA = test: Gene panel canonical junction qPCR assay, SMN2; conditions: decrease in CJ mRNA levels, RT-qPCR
Procedure: as §1, §2, §3, §4, §5, §6, §7

| SMILES | IC50 (HTT CJ mRNA) [nM] | IC50 (Target C CJ mRNA) [nM] | IC50 (HTT mRNA) [nM] | AC50 (HTT mRNA) [nM] | IC50 (SMN2 CJ mRNA) [nM] |
| --- | --- | --- | --- | --- | --- |
| c1cnn(-c2ccc3c(c2)COc2nc(N4CCCC5(CCNC5)C4)ccc2-3)c1 (stereo not drawn) [Compound 192] | > 10000 | > 10000 | > 10000 | > 10000 | > 10000 |
| c1cnn(-c2ccc3c(c2)COc2nc(N4CCCC5(CNC5)C4)ccc2-3)c1 [Compound 181] | > 10000 | > 10000 | > 10000 | > 10000 | > 10000 |
| c1cnn(-c2ccc3c(c2)OCCc2nc(N[C@@H]4C[C@H]5CC[C@@H](C4)N5)ccc2-3)c1 [Compound 136, N-[(1R,3S,5S)-8-azabicyclo[3.2.1]octan-3-yl]-13-(pyrazol-1-yl)-10-oxa-6-azatricyclo[9.4.0.0^[2,7]]pentadeca-1(11),2(7),3,5,12,14-hexaen-5-amine] | > 10000 | > 10000 | > 10000 | > 10000 | > 10000 |
| c1cnn(-c2ccc3c(c2)COc2nc(N4CCC5(CC4)CNC5)ccc2-3)c1 [Compound 169] | 100 to 1000 | 100 to 1000 | 100 to 1000 | 100 to 1000 | 100 to 1000 |
| CN(C)[C@H]1[C@@H]2CN(c3ccc4c(n3)OCc3cc(-n5cccn5)ccc3-4)C[C@@H]21 [Compound 197] | 1000 to 10000 | > 10000 | 1000 to 10000 | > 10000 | > 10000 |
| Cc1cn(-c2ccc3c(c2)COc2nc(N(C)[C@@H]4C[C@H]5CC[C@@H](C4)N5)ccc2-3)cn1 [Compound 164] | < 100 | 100 to 1000 | < 100 | < 100 | < 100 |
| c1cnn(-c2ccc3c(c2)COc2nc(N4CC5(CCNCC5)C4)ccc2-3)c1 [Compound 167] | > 10000 | > 10000 | > 10000 | > 10000 | > 10000 |
| CN(c1ccc2c(n1)OCc1cc(-n3cccn3)ccc1-2)[C@H]1C[C@]2(C)CC[C@](C)(C1)N2 [Compound 180] | < 100 | 100 to 1000 | < 100 | < 100 | < 100 |
| CN(c1ccc2c(n1)OCc1cc(-c3ccc(=O)[nH]c3)ccc1-2)[C@@H]1C[C@H]2CC[C@@H](C1)N2 [Compound 157] | 1000 to 10000 | 1000 to 10000 | 1000 to 10000 | 1000 to 10000 | 100 to 1000 |
| c1cnn(-c2ccc3c(c2)COc2nc(N[C@@H]4C[C@H]5CC[C@@H](C4)N5)ccc2-3)c1 [Compound 179] | 100 to 1000 | 100 to 1000 | 100 to 1000 | 100 to 1000 | 100 to 1000 |
| CN(c1ccc2c(n1)OCc1cc(-n3ccnn3)ccc1-2)[C@@H]1C[C@H]2CC[C@@H](C1)N2 [Compound 152] | 100 to 1000 | 100 to 1000 | 100 to 1000 | < 100 | < 100 |
| COc1cc(-c2ccc3c(c2)COc2nc(N(C)[C@@H]4C[C@H]5CC[C@@H](C4)N5)ccc2-3)ccn1 [Compound 156] | < 100 | 100 to 1000 | < 100 | < 100 | 100 to 1000 |
| c1cnn(-c2ccc3c(c2)COc2nc(N4CCC5(CCCNC5)C4)ccc2-3)c1 (stereo not drawn) [Compound 183] | > 10000 | > 10000 | > 10000 | > 10000 | 100 to 1000 |
| CN1C[C@@H]2[C@H](C1)[C@H]2N(C)c1ccc2c(n1)OCc1cc(-n3cccn3)ccc1-2 [Compound 196] | > 10000 | > 10000 | > 10000 | > 10000 | > 10000 |
| c1cnn(-c2ccc3c(c2)COc2nc(N4CCNCC4)ccc2-3)c1 [Compound 173] | > 10000 | > 10000 | > 10000 | > 10000 | 1000 to 10000 |
| CN(c1ccc2c(n1)OCc1cc(-n3cccn3)ccc1-2)C1CCNCC1 [Compound 175] | > 10000 | > 10000 | > 10000 | 1000 to 10000 | 1000 to 10000 |
| c1cnn(-c2ccc3c(c2)COc2nc(N(C4CCNCC4)C4CC4)ccc2-3)c1 [Compound 202] | 1000 to 10000 | > 10000 | 1000 to 10000 | > 10000 | > 10000 |
| c1cnn(-c2ccc3c(c2)COc2nc(S[C@@H]4C[C@H]5CC[C@@H](C4)N5)ccc2-3)c1 [Compound 193] | 1000 to 10000 | > 10000 | > 10000 | > 10000 | > 10000 |
| CN(c1ccc2c(n1)OCCc1cc(-c3cn[nH]c3)ccc1-2)[C@@H]1C[C@H]2CC[C@@H](C1)N2 [Compound 146] | 1000 to 10000 | > 10000 | 1000 to 10000 | 1000 to 10000 | > 10000 |
| CC1(C)CC(Oc2ccc3c(n2)OCc2cc(-n4cccn4)ccc2-3)CCN1 (stereo not drawn) [Compound 186] | 1000 to 10000 | > 10000 | 1000 to 10000 | 1000 to 10000 | 100 to 1000 |
| CN(c1ccc2c(n1)OCc1cc(-c3cnn(C)c(=O)c3)ccc1-2)[C@@H]1C[C@H]2CC[C@@H](C1)N2 [Compound 160] | < 100 | < 100 | < 100 | < 100 | < 100 |
| [2H]C([2H])([2H])N(c1ccc2c(n1)OCc1cc(-n3cccn3)ccc1-2)C1CC(C)(C)NC(C)(C)C1 [Compound 199] | 1000 to 10000 | > 10000 | 1000 to 10000 | 1000 to 10000 | 1000 to 10000 |
| c1cc2c(cc1-c1cn[nH]c1)COc1nc(N[C@@H]3C[C@H]4CC[C@@H](C3)N4)cnc1-2 [Compound 143, (exo)-N-[8-(1H-pyrazol-4-yl)-6H-isochromeno[3,4-b]pyrazin-3-yl]-8-azabicyclo[3.2.1]octan-3-amine] | 100 to 1000 | 100 to 1000 | 100 to 1000 | 100 to 1000 | 100 to 1000 |
| CC1(C)CC(Nc2ccc3c(n2)CCOc2cc(-n4cccn4)ccc2-3)CC(C)(C)N1 [Compound 137, 13-(pyrazol-1-yl)-N-(2,2,6,6-tetramethylpiperidin-4-yl)-10-oxa-6-azatricyclo [9.4.0.0^[2,7]]pentadeca-1(11),2(7),3,5,12,14-hexaen-5-amine] | > 10000 | 1000 to 10000 | 1000 to 10000 | 1000 to 10000 | > 10000 |
